The results in this text go back to patent publication EP0973746B1, “SUBSTITUTED 3-CYANO QUINOLINES” (Wyeth Holdings Corporation, priority 1997, dated 1998).

Data set [1] deals with Epithelial Cell Kinase (ECK) (Homo sapiens, UniProt P29317). Kind of data set: biochemical.
Description: In this standard pharmacological test procedure, a biotinylated peptide substrate is first immobilized on neutravidin-coated microtiter plates. The test drug, the Epithelial Cell Kinase (ECK), Mg^++, sodium vanadate (a protein tyrosine phosphatase inhibitor), and an appropriate buffer to maintain pH (7.2) are then added to the immobilized substrate-containing microtiter wells. ATP is then added to initiate phosphorylation. After incubation, the assay plates are washed with a suitable buffer leaving behind phosphorylated peptide which is exposed to horse radish peroxidase (HRP)-conjugated anti-phosphotyrosine monoclonal antibody. The antibody-treated plates are washed again and the HRP activity in individual wells is quantified as a reflection of degree of substrate phosphorylation.
In data set [2] the target is T1, Kinase insert Domain containing Receptor (KDR: the catalytic domain of the VEGF receptor) (Homo sapiens, UniProt P35968).
T1 construct: KDR: the catalytic domain of the VEGF receptor
Kind of data set: Inhibition of Kinase insert Domain containing Receptor (KDR).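 Further: KDR phosphorylating a Glu:Tyr 4:1 copolymer with P32- or P33-labelled ATP, Mg++ and vanadate, read as acid-insoluble radiolabel, compared with compound-free reaction.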 The data set is classed as biochemical. The settings on record: pH 7.2; radioactive format; read-out: KDR IC50 (converted).

In data set [3] the target is recombinant human MEK 1 (MAPKK) and recombinant human ERK2 (MAPK). Kind of data set: Mitogen Activated Protein Kinase (MAPK) assay, two component coupled MEK 1 / ERK2.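 Further: MEK 1-activated ERK2 phosphorylates MBP or Myc peptide with 33P-ATP, filter capture and scintillation counting, inhibitor preincubated with ERK2 30 min at 0 °C, inhibition relative to uninhibited control.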 The data set is classed as biochemical. The following applies: separate entries for the same compound = evaluated more than one time.
Data set [4] concerns the target T2, His-tagged cytoplasmic domain of EGFR (Homo sapiens, UniProt P00533).
T2 construct: containing the EGFR cDNA encoding amino acids 645 - 1186 preceded by Met-Ala-(His)6; made in house; host or cells: Sf9 cells, recombinant baculovirus vHcEGFR52
Kind of data set: Inhibition of Epidermal Growth Factor Receptor Kinase (EGF-R) using recombinant enzyme.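 Further: radiometric kinase assay measuring radiolabeled phosphate transfer from ATP onto the peptide tyrosine by scintillation counting, control is reaction without compound, background subtracted, IC50 from dose-response curve.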 The data set is classed as biochemical. The settings on record: recombinant enzyme; RR-SRC peptide; average of the number of tests; read-out: IC50.

In data set [5] the test system is SW620. Put plainly: Inhibition of cancer cell growth as measured by cell number, SW620.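 Further: SW620 was included as a cell line with little or no EGFR or HER2/neu expression, in contrast to receptor-overexpressing lines.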 The data set is classed as cell-based, human. The following applies: Homo sapiens, SW-620, 48 h, read-out: IC50 SW620.
Excerpt: (§1) The cell lines were chosen since they overexpressed epidermal growth factor receptor (EGFR) (i.e. A431) or HER2/neu (SKBR3), or had little to no expression of the these receptors (SW620, LOX, MCF7).
Data set [6] concerns A431. Kind of data set: Inhibition of cancer cell growth as measured by cell number, A431.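 Further: human A431 line, picked because it overexpresses epidermal growth factor receptor (EGFR).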 The data set is classed as cell-based, human. The settings on record: Homo sapiens, A-431, 48 h, read-out: IC50 A431.
Excerpt: as §1
Data set [7] concerns SKBR3. Put plainly: Inhibition of cancer cell growth as measured by cell number, SKBR3.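 Further: SK-BR-3 cells were selected as a line overexpressing HER2/neu.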 The data set is classed as cell-based, human. The following applies: Homo sapiens, SK-BR-3, 48 h, read-out: IC50 SKBR3.
Excerpt: as §1
The subject of data set [8] is LOX. Put plainly: Inhibition of cancer cell growth as measured by cell number, LOX.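 Further: LOX cells served as a line with low or absent EGFR and HER2/neu expression, in contrast to receptor-overexpressing lines.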 It is filed as cell-based, human. The following applies: Homo sapiens, LOX, 48 h, read-out: IC50 LOX.
Excerpt: as §1
Data set [9] relates to human epidermoid tumors (A431). Kind of data set: In vivo inhibition of the growth of human epidermoid tumors (A431). The settings on record: Table 10; for S/T = No. Survivors/No. Treated: Day +28 post tumor staging. The protocol: Representative compounds of this invention (listed below) were evaluated in an in vivo standard pharmacological test procedure which measured its ability to inhibit the growth of human epidermoid tumors. […] BALB/c nu/nu female mice (Charles River, Wilmington, MA) were used in this in vivo standard pharmacological test procedure. A unit of 5 X 10^6 cells were injected SC into mice. When tumors attained a mass of between 100 and 150 mg, the mice were randomized into treatment groups (day zero). […] Control animals received no drug. Tumor mass was determined every 7 days [(length X width^2)/2] for 28 days post staging. Relative tumor growth (Mean tumor mass on days 7, 14, 21, and 28 divided by the mean tumor mass on day zero) is determined for each treatment group.

[10] abbreviates: 80 mg/kg/dose PO on days 1 through 10.

In brackets after ≈: the same amount, converted by molar mass.

T1 sequence (P35968 834-1162 limits assumed): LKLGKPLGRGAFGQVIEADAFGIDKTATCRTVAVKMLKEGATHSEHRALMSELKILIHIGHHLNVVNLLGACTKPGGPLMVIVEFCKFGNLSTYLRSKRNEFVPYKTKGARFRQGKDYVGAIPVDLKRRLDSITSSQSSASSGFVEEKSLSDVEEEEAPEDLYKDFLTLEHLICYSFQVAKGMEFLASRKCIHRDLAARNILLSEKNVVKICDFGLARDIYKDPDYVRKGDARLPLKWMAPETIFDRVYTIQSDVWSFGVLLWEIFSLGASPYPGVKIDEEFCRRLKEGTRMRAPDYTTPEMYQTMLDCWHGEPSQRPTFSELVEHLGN
T2 sequence (P00533 669-1210): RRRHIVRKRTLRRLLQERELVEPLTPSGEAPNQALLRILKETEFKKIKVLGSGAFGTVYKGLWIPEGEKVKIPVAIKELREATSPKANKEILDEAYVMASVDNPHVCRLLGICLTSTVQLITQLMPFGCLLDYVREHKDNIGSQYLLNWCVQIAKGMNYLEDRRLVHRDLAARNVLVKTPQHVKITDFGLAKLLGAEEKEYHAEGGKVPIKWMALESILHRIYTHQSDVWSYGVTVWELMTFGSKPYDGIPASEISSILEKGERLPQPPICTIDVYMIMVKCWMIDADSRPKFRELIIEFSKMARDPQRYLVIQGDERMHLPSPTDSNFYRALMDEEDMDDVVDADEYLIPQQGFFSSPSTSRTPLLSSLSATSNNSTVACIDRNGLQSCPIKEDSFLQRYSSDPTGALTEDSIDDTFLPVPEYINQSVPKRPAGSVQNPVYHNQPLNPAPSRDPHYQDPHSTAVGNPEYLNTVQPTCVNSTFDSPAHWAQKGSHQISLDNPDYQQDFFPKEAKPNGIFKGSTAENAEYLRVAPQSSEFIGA
Sequence of Epithelial Cell Kinase (ECK) (P29317 24-976, species assumed): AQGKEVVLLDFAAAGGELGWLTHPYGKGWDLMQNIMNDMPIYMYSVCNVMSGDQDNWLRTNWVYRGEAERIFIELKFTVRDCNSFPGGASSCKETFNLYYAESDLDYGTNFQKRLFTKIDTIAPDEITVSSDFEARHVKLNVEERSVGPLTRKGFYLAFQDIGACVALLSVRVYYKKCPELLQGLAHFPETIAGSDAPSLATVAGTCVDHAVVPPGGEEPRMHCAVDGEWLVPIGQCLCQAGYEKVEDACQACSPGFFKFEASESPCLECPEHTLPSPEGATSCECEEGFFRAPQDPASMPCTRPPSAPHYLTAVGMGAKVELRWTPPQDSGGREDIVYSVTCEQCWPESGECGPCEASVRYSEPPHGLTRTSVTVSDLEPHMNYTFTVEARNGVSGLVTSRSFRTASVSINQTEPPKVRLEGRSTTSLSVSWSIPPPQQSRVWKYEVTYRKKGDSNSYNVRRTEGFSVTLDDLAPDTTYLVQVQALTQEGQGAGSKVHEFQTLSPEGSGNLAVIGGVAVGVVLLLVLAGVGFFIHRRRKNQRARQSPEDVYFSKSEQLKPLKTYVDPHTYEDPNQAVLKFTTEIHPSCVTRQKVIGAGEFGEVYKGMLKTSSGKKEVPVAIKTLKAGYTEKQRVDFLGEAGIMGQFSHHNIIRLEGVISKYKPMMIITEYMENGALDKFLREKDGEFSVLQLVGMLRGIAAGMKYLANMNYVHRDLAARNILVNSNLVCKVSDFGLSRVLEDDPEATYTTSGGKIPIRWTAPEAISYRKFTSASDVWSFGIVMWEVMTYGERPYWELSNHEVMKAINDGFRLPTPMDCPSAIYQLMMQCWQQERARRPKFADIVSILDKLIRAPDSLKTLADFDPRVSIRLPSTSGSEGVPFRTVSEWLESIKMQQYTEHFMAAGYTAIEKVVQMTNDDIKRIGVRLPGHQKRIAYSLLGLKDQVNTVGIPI

For orientation: IC50 means the concentration at which inhibition is half-maximal. For `COc1cc2c(Nc3ccc(Cl)cc3F)c(C#N)cnc2cc1OCCCCl` [Example 76, 4-(4-Chloro-2-fluoro-phenylamino)-7-(3-chloro-propoxy)-6-methoxy-quinoline-3-carbonitrile], the results for the IC50 in [1], in [2] and in data set [3] were 0.466 µM, 1.67 µM and below 1 µM, respectively.

On to `COc1cc2c(Nc3ccc(C)c(O)c3)c(C#N)cnc2cc1OCCN(C)C` [Example 82, 7-(2-Dimethylamino-ethoxy)-4-(3-hydroxy-4-methylphenylamino)-6-methoxy-quinoline-3-carbonitrile], for which the IC50 was 51 µM in data set [1], 7.64 µM in data set [2] and 5.5 µM in data set [3].

As to `COc1cc2c(Nc3cc(O)c(Cl)cc3F)c(C#N)cnc2cc1OCCCN(C)C` [Example 84, 4-(4-Chloro-2-fluoro-5-hydroxy-phenylamino)-7-(3-dimethylaminopropoxy)-6-methoxy-quinoline-3-carbonitrile], the IC50 in data set [1] is 0.449 µM; in data set [2], 0.674 µM; in data set [3], below 1 µM.

Regarding `COc1cc2c(Nc3cc(O)c(Cl)cc3F)c(C#N)cnc2cc1OCCCN1CCOCC1` [Example 85, 4-(4-Chloro-2-fluoro-5-hydroxy-phenylamino)-6-methoxy-7-(3-morpholin-4-yl-propoxy)-quinoline-3-carbonitrile], the IC50 in data set [1] is 0.0411 µM; in data set [2], 0.616 µM.

On to `C=CC(=O)Nc1ccc2ncc(C#N)c(Nc3cccc(I)c3)c2c1` [Example 129], for which the figures for the IC50 in data set [4], in [1] and in data set [3] were 0.04 µM, 22.7 µM and 60 µM, respectively.

Take `N#Cc1cnc2ccc(NC(=O)C#CCN3CCCCC3)cc2c1Nc1cccc(Br)c1` [Example 169, N-{4-[(3-Bromophenyl)amino]-3-cyano-6-quinolinyl}-4-piperidino-2-butynamide]: the IC50 was 0.005 µM in data set [4]; 0.1 mg/L (≈ 0.205 µM) in [5]; 0.01 mg/L (≈ 0.0205 µM) in data set [6]; 0.02 mg/L (≈ 0.041 µM) in data set [7]; 40.9 µM in data set [1]; above 100 µM in data set [3].

As for `CCOc1cc2ncc(C#N)c(Nc3cccc(Br)c3)c2cc1OC` [Example 176, 4-[(3-Bromophenyl)amino]-7-ethoxy-6-methoxy-3-quinolinecarbonitrile], the IC50 in [1] is 0.01 µM; in data set [2] it was 7.53 µM; in [3], above 100 µM.

With `CCOc1cc2ncc(C#N)c(Nc3ccc(C)c(O)c3)c2cc1OC` [Example 177, 7-Ethoxy-4-[(3-hydroxy-4-methylphenyl)amino]-6-methoxy-3-quinolinecarbonitrile], the IC50 in data set [1] was 0.0057 µM; in data set [2] it was 0.143 µM; in data set [3] it was 40 µM.

On to `CCN(CC)CC#CC(=O)Nc1ccc2ncc(C#N)c(Nc3cccc(Br)c3)c2c1` [Example 187, N-[4-[(3-Bromophenyl)amino]-3-cyano-6-quinolinyl]-4-diethylamino-2-butynamide], for which the IC50 in data set [4] was 0.0007 µM; in data set [5], 0.05 mg/L (≈ 0.105 µM); in data set [8], 0.07 mg/L (≈ 0.147 µM); in [6] it was 0.06 mg/L (≈ 0.126 µM); in data set [7], 0.06 mg/L (≈ 0.126 µM); in data set [1], above 42 µM. Moreover, in [3], the IC50 was above 100 µM.

Take `CC(C)N(CC#CC(=O)Nc1ccc2ncc(C#N)c(Nc3cccc(Br)c3)c2c1)C(C)C` [Example 192, N-[4-[(3-Bromophenyl)amino]-3-cyano-6-quinolinyl]-4-diisopropylamino-2-butynamide]: the IC50 is 0.0006 µM in data set [4]; 0.1 mg/L (≈ 0.198 µM) in data set [5]; 0.05 mg/L (≈ 0.0991 µM) in data set [6]; 0.03 mg/L (≈ 0.0595 µM) in data set [7]; 39.6 µM in data set [1]; above 100 µM in data set [3].

On to `CN(C)CC#CC(=O)Nc1ccc2ncc(C#N)c(Nc3ccc(F)c(Cl)c3)c2c1` [Example 193, N-[4-[(3-Chloro-4-fluorophenyl)amino]-3-cyano-6-quinolinyl]-4-dimethylamino-2-butynamide], for which the IC50 is 0.0019 µM in data set [4]; 0.1 mg/L (≈ 0.237 µM) in data set [5]; 0.01 mg/L (≈ 0.0237 µM) in data set [6]; 0.003 mg/L (≈ 0.00711 µM) in [7]; 47.4 µM in [1]; 50 µM in data set [3].

`CCN(CC)CC=CC(=O)Nc1cc2c(Nc3ccc(F)c(Cl)c3)c(C#N)cnc2cc1OC` [Example 204, 4-Diethylamino-but-2-enoic acid [4-(3-chloro-4-fluorophenylamino)-3-cyano-7-methoxy-quinolin-6-yl]-amide]: in [9] (80 mg/kg/dose IP on days 1,5,9), the “%T/C Day 7” value stood at 45%, the “%T/C Day 14” value stood at 42%, the “%T/C Day 21” value stood at 55% and the “%T/C Day 28” value stood at 49%. In addition, the “S/T = No. Survivors/No. Treated” value in data set [9] (80 mg/kg/dose IP on days 1,5,9) was 5/5. Besides, in data set [9] (setting [10]), the “%T/C Day 7” value is listed as 25%, the “%T/C Day 14” value was 18%, the “%T/C Day 21” value was found to be 43% and the “%T/C Day 28” value is reported as 51%. Moreover, the “S/T = No. Survivors/No. Treated” value in data set [9] (setting [10]) is 4/5. Also, half-maximal inhibition in data set [1] (IC50) was put at 20.7 µM. Besides, the IC50 in data set [3] came to 35 µM.

Take `COc1cc2ncc(C#N)c(Nc3ccc(F)c(Cl)c3)c2cc1NC(=O)C=CCN1CCOCC1` [Example 205, 4-Morpholin-4-yl-but-2-enoic acid [4-(3-chloro-4-fluorophenylamino)-3-cyano-7-methoxy-quinolin-6-yl]-amide]: in [9] (80 mg/kg/dose IP on days 1,5,9), the “%T/C Day 7” value came out at 30%, the “%T/C Day 14” value is recorded as 25%, the “%T/C Day 21” value is given as 38% and the “%T/C Day 28” value was 61%. In [9] (80 mg/kg/dose IP on days 1,5,9), the “S/T = No. Survivors/No. Treated” value is recorded as 5/5. In data set [9] (setting [10]), the “%T/C Day 7” value was 23%, the “%T/C Day 14” value was 19%, the “%T/C Day 21” value stood at 23% and the “%T/C Day 28” value is given as 29%. The “S/T = No. Survivors/No. Treated” value in data set [9] (setting [10]) is reported as 5/5. In data set [1], the IC50 is 40.4 µM. For the same compound, the IC50 in data set [3] was above 100 µM.

Take `COc1cc2c(Nc3cccc(Br)c3)c(C#N)cnc2c(OC)c1OC` [Example 241, 4-(3-Bromo-phenylamino)-6,7,8-trimethoxy-quinoline-3-carbonitrile]: the IC50 in data set [1] is 7.24 µM; in data set [2] it was above 72.4 µM; in [3], above 100 µM.

As to `COc1cc2c(Nc3cc(O)c(Cl)cc3F)c(C#N)cnc2c(OC)c1OC` [Example 244, 4-(4-Chloro-2-fluoro-5-hydroxy-phenylamino)-6,7,8-trimethoxy-quinoline-3-carbonitrile], the IC50 in [1] was 24.8 µM; in [2] it was above 74.3 µM; in data set [3] it was above 100 µM.

In the case of `COc1cc2ncc(C#N)c(Nc3c(C)cccc3O)c2cc1OC` [Example 246, 4-(2-Hydroxy-6-methyl-phenylamino)-6,7-dimethoxy-quinoline-3-carbonitrile], the IC50 is 0.006 µM in [1], above 29.8 µM in data set [2] and 35 µM in [3].

On to `COc1ccc2c(Nc3ccc(C)c(O)c3)c(C#N)cnc2c1` [Example 281, 4-(3-hydroxy-4-methyl-phenylamino)-7-methoxy-quinoline-3-carbonitrile], for which the IC50 in data set [1] is 0.0033 µM; in data set [2] it was 9.83 µM; in data set [3], 2.5 µM.

On to `COc1ccc2c(Nc3cc(O)c(Cl)cc3F)c(C#N)cnc2c1` [Example 282, 4-(4-Chloro-2-fluoro-5-hydroxy-phenylamino)-7-methoxy-quinoline-3-carbonitrile], for which the figures for the IC50 in [1], in data set [2] and in data set [3] were 0.0029 µM, 5.82 µM and above 100 µM, respectively.

Consider `COc1cc2ncc(C#N)c(Nc3ccc(O)cc3C)c2cc1OC` [Example 292, 4-(4-Hydroxy-2-methyl-phenylamino)-6,7-dimethoxy-quinoline-3-carbonitrile], for which the results for the IC50 in data set [1], in [2] and in [3] were 0.0018 µM, 29.8 µM and above 100 µM, respectively.

Consider `COc1cc2ncc(C#N)c(Nc3cccc(SC)c3)c2cc1OC` [Example 294, 6,7-Dimethoxy-4-(3-methylsulfanyl-phenylamino)-quinoline-3-carbonitrile], for which the values for the IC50 in data set [1], in data set [2] and in [3] were 0.002 µM, 17.1 µM and 9 µM, respectively.

Regarding `COc1cc2ncc(C#N)c(Nc3cc(O)c(Cl)cc3F)c2cc1OC` [Example 319, 4-(4-Chloro-2-fluoro-5-hydroxy-phenylamino)-6,7-dimethoxy-quinoline-3-carbonitrile], the IC50 in data set [1] is 0.001 µM; in data set [2], 1.34 µM; in data set [3], below 1 µM.
